The values below come from ChEMBL document CHEMBL1155424, “3D-QSAR and docking studies on transforming growth factor (TGF)-beta receptor 1 antagonists” (Bioorg Med Chem Lett, 2010).

In assay [1] the target is T1, TGF-beta receptor type-1 (Homo sapiens) (UniProt P36897).
T1 sequence (whole entry): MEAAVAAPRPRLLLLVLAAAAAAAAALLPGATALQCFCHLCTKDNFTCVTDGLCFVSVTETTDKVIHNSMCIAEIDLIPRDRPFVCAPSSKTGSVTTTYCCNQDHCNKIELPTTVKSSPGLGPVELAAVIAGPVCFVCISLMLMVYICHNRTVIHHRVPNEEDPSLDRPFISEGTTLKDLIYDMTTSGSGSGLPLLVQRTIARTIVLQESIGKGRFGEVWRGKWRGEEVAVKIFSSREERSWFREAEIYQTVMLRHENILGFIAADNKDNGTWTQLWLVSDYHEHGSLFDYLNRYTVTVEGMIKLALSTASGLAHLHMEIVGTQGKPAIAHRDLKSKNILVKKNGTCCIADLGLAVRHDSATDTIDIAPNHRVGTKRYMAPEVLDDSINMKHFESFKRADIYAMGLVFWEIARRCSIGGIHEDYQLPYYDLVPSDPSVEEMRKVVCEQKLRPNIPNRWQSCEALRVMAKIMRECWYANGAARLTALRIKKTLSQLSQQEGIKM
Description: Antagonistic activity at TGFBR1

The target of the next assay is T2, TGF-beta receptor type-1 (Homo sapiens, UniProt P36897).
T2 sequence (P36897 whole entry): T1 sequence (whole entry)

Turning to `CCc1cccc(-c2[nH]c(CNc3cccc(C(N)=O)c3)nc2-c2ccc3nccnc3c2)n1`, the logIC50 in assay [1] is -1.82.

`Cc1cccc(-c2[nH]c(CNc3cccc(C(N)=O)c3)nc2-c2ccc3c(c2)OCO3)n1` registered a logIC50 in assay [1] of -1.68.

In turn, `Cc1cccc(-c2[nH]c(CNc3cccc(C(N)=O)c3)nc2-c2ccc3nccnc3c2)n1` came in with a logKi in assay [1] of -2.

Consider `Cc1cccc(-c2[nH]c(NCc3ccc(C#N)cc3)nc2-c2ccc3c(c2)OCO3)n1`, for which the logIC50 in assay [1] is -0.815.

`CCc1cccc(-c2[nH]c(CNc3ccc(C#N)cc3)nc2-c2ccc3c(c2)OCO3)n1` yielded a logIC50 in assay [1] of -0.443.

In assay [1], `CCc1cccc(-c2[nH]c(CNc3cccc(C#N)c3)nc2-c2ccc3nccnc3c2)n1` showed a logIC50 of -0.924.

For the compound `O=C(O)c1ccc(-c2nc(-c3ccc4c(c3)OCO4)c(-c3ccccn3)[nH]2)cc1`, the logIC50 in assay [1] was -0.77.

Consider `Cc1cccc(-c2[nH]c(CNc3ccc(C(N)=O)cc3)nc2-c2ccc3c(c2)OCO3)n1`, for which, in assay [1], the logIC50 was -0.582.

In turn, `Cc1cccc(-c2[nH]c(CNc3ccc(C#N)cc3)nc2-c2ccc3nccnc3c2)n1` registered a logIC50 in assay [1] of -1.38.

For the compound `Cc1cccc(-c2[nH]c(CNc3ccc(C#N)cc3)nc2-c2ccc3c(c2)OCO3)n1`, the logIC50 in assay [1] is -0.759. Further, the IC50 – broadly, the concentration needed to halve the response being measured – at TGF-beta receptor type-1 was 171 nM.

Turning to `CCc1cccc(-c2[nH]c(CNc3cccc(C(N)=O)c3)nc2-c2ccc3c(c2)OCO3)n1`, the logIC50 in assay [1] was -1.34.

On to `Cc1cccc(-c2[nH]c(CNc3cccc(C#N)c3)nc2-c2ccc3nccnc3c2)n1`, for which the logIC50 in assay [1] was -1.92.

Take `N#Cc1ccc(-c2nc(-c3ccc4c(c3)OCO4)c(-c3ccccn3)[nH]2)cc1`: the logIC50 in assay [1] came to 0.47.

Turning to `Cc1cccc(-c2[nH]c(NCc3cccc(C#N)c3)nc2-c2ccc3c(c2)OCO3)n1`, the logIC50 in assay [1] is -1.62.

For `Cc1cccc(-c2[nH]c(CNc3ccc(C(N)=O)cc3)nc2-c2ccc3nccnc3c2)n1`, in assay [1], the logIC50 is -1.12.

Turning to `OCc1ccc(-c2nc(-c3ccccn3)c(-c3ccc4c(c3)OCO4)[nH]2)cc1`, in assay [1], the logKi was -0.585.

Consider `Cc1cccc(-c2[nH]c(CNc3cccc(C#N)c3)nc2-c2ccc3c(c2)OCO3)n1`, for which the logIC50 in assay [1] was -1.34.

`Cc1cccc(-c2[nH]c(C(C)(C)C)nc2-c2ccc3c(c2)OCO3)n1` had a logIC50 in assay [1] of -1.33.

The compound `CCc1cccc(-c2[nH]c(CNc3ccc(C#N)cc3)nc2-c2ccc3nccnc3c2)n1` displayed a logKi in assay [1] of -1.32.

In turn, `CCc1cccc(-c2[nH]c(CNc3cccc(C#N)c3)nc2-c2ccc3c(c2)OCO3)n1` gave a logIC50 in assay [1] of -1.14.

In turn, `CCc1cccc(-c2[nH]c(CNc3ccc(C(N)=O)cc3)nc2-c2ccc3c(c2)OCO3)n1` came in with a logIC50 in assay [1] of -0.415.
